Source: patent US11976066B1 (priority 2023, dated 2024)
Values after ≈ are worked out from the molar mass of the structure shown.

System: multidrug-resistant (MDR) strains of Mycobacterium tuberculosis
Assay: microbe, parasite or virus in culture
Type: cell-based
Conditions: 192 h, read-out: MIC MDR-TB, MDR strains, REMA, 8 days incubation at 37° C, Middlebrook 7H9 broth

SMILES | MIC [µg/mL]
CCOC(=O)c1cc(C(=O)c2ccc(Br)cc2)n2ccc(N)cc12 [Compound 3e, Ethyl 7-amino-3-(4-bromobenzoyl)indolizine-1-carboxylate] | ~64 (≈ 165 µM)
COC(=O)c1c(C(=O)OC)c2cc(N)ccn2c1C(=O)c1ccc(OC)cc1 [Compound 3d, Dimethyl 7-amino-3-(4-methoxybenzoyl)indolizine-1,2-dicarboxylate] | ~32 (≈ 83.7 µM)
CCOC(=O)c1cc(C(=O)c2ccc(F)cc2)n2ccc(N)cc12 [Compound 3a, Ethyl 7-amino-3-(4-fluorobenzoyl)indolizine-1-carboxylate] | 32 (≈ 98.1 µM)
CCOC(=O)c1cc(C(=O)c2ccccc2[N+](=O)[O-])n2ccc(N)cc12 [Compound 3b, Ethyl 7-amino-3-(2-nitrobenzoyl)indolizine-1-carboxylate] | ~16 (≈ 45.3 µM)
